The results in this text go back to US8809372B2, “Pyridine derivatives” (Endo Pharmaceuticals, Inc., priority 2011, dated 2014).

What is called melting point is the temperature of the solid-liquid transition.

Series [1] has as its system testosterone production in H295R cells. Nature of the series: Cell-based functional assay for testosterone production. Details: species or system human. The procedure: Cell-Based Functional Assay for Testosterone Production
H295R cells (ATCC Number CRL-2128) were subcultured, seeded (30,000 cells per well in a poly-d lysine plate) and left overnight at 37° C. The next day (after approximately 24 hours), the media were removed and 200 μL fresh media were added. Then, 50 μL of serially diluted compounds was added from a 5× plate. The serial dilution in the 100× plate (in DMSO) and the stamping of a 5× plate (in media) from the 100× plate were carried out using a TECAN liquid handling device. The plate was incubated at 37° C. for 72 hours. After incubation, the media was removed, diluted 5 to 10 times with calibration diluent RD5-48, and the assay performed as per manufacturer's protocol (Parameter Testosterone Assay, Cat. No. KGE010, R&D systems; http://www.mdsystems.com/pdf/KGE010.pdf).

The target in series [2] is T1, human CYP17 in LNCap-CYP17 cells (Homo sapiens, UniProt P05093).
T1 construct: expressed in transfected cells
T1 sequence (P05093 1-508): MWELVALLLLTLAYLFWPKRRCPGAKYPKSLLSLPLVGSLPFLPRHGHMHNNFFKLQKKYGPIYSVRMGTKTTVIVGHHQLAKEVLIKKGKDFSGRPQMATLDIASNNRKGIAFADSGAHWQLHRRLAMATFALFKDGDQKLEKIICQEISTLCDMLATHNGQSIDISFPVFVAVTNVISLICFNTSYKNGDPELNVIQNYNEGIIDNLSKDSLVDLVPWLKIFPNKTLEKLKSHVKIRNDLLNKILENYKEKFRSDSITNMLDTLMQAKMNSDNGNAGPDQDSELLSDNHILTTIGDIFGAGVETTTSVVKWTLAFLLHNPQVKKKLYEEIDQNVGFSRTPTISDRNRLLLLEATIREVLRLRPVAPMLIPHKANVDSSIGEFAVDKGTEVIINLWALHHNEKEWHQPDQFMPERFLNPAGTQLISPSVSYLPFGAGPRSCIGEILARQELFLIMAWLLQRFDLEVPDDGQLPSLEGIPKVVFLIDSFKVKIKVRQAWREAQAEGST
The experiment in a line: Cell-based human CYP17 inhibition assay, LNCap-CYP17 cells. The note with it: 16 hours. How it is done:
Cell-Based Human CYP17 Inhibition Assay
1. H295R Adrenocortical Carcinoma Cells and Growth Media: The media for the H295R Adrenocortical carcinoma cells [NCI-H295A, ATCC Number CRL-2128, American Type Culture Collection, Manassas, Va., US] (500 mL) was a DMEM:F12 Mix 1:1 with 5% (2 mL) BD Nu Serum; 1% (5 mL) ITS+Premix [BD Biosciences] and 1% Penstrep. 2. LNCap-CYP17 Cells and Growth Media: Full length hCYP17a1 gene (NCBI Reference Sequence: NM_000102.3) was cloned in pcDNA3.1(+) vector between HindIII and XhoI site. The pcDNA3.1(+) vector contains the Neomycin resistance gene and was used for selection of stable cell line. The hCYP17a1 containing pcDNA3.1(+) was transfected into LNCap cells to create the LNCap-CYP17 cell line. The media for the LNCaP-CYP17 cells was RPMI 1640, 10% FBS, 1% PenStrep, Geneticin 400 μg/mL.
The H295R cells or LNCaP-hCYP17 cells were subcultured and 30,000 cells per well were seeded in a poly-d lysine plate and incubated overnight at 37° C. The next day the media was removed and 200 μL of fresh media with ^3H3-17α-hydroxy-pregnenolone (1:1000) was added. 50 μL of serially diluted compounds from a 5× plate (5 times the final desired concentration) was added. […]
The plates were incubated overnight (16 hours) at 37° C. […] Following the incubation for 30 minutes, readings for the radiotracer were taken using a Microbeta® trilux.

Series [3] deals with prostate and seminal vesicle weights. The experiment in a line: In vivo reduction of prostate and seminal vesicle weights. Details: species or system rat. The note with it: male rats. How it is done:
In vivo Reduction of Prostate and Seminal Vesicle Weights Male rats aged 8 to 10 weeks old (5 animals per group) were dosed orally with compounds once or twice a day at 12-hour intervals for 14 days. On day 14 the animals were euthanized and organs were surgically removed for wet weight determination including the prostate, seminal vesicles and testes.

In a further series the test system is serum testosterone level. The experiment in a line: In vivo inhibition of testosterone production. Details: species or system rat. Particulars: male rats, vs vehicle-dosed controls. How it is done: In vivo Inhibition of Testosterone Production
Male rats aged 8 to 10 weeks old were dosed orally with compounds at 10 or 30 mg/kg. Blood samples were drawn at 0.5, 3, 8, and 24 hours and were processed to plasma samples. Samples were analyzed for compound levels by LC-MS/MS method and for testosterone levels with an ELISA performed as per manufacturer's protocol (Parameter Testosterone Assay, Cat. No. KGE010, R&D systems; http://www.mdsystems.com/pdf/KGE010.pdf). The serum testosterone level was calculated from standards using GraphPad® Prism software and % inhibition at a given time was calculated by comparing the testosterone level in vehicle control animals at the same time of day.

Setting [4] is: Homo sapiens, NCI-H295R, 72 h, read-out: Testosterone (human H295R adrenal cells).
Where [5] appears, read: 30 mg/kg orally once a day for 14 days.
[6] abbreviates: read-out: Testosterone (human H295R adrenal cells), H295R cells, 72 hours.
[7] abbreviates: Homo sapiens, NCI-H295R, 72 h, read-out: Testosterone (human H295R adrenal cells), H295R cells, 72 hours.
The mark [8] stands for this setting: 30 mg/kg orally twice a day for 14 days.
Where [9] appears, read: 3-8 hours after a 30 mg/kg oral dose.

Where two headings read alike, the source gives them in different places.

Turning to `COc1ccc(-c2ccc(C(C)(O)c3ccncc3)nc2)cc1` (racemic) [Example 1, 1-(5-(4-Methoxyphenyl)pyridin-2-yl)-1-(pyridin-4-yl)ethanol], the IC50 in series [1] (setting [4]) lay within 50 to 200 nM; in series [2], 0.201 to 10 µM.

Compound `CC(O)(c1ccncc1)c1cnc(-c2ccc(F)cc2)s1` (racemic) [Example 7, 1-(2-(4-Fluorophenyl)thiazol-5-yl)-1-(pyridin-4-yl)ethanol] registered a melting point of 229 to 232 °C. Moreover, in series [3] (setting [5]), the “reduction of prostate weight” value was “about 50%” and the “reduction of seminal vesicle weight” value is listed as “about 60%”. In addition, in series [1] (setting [4]), the IC50 is less than 50 nM. For the same compound, the “decrease of serum testosterone levels” value in the series with serum testosterone level (3-8 hours after a 10 mg/kg oral dose) is given as 70-85%.

Turning to `COc1ccc(-c2ccc(C(C)(O)c3ccncc3)nc2)cc1` (single isomer, unassigned) [Example 2, 1-(5-(4-methoxyphenyl)-pyridin-2-yl)-1-(pyridin-4-yl)ethanol], the IC50 in series [1] (setting [6]) lay in the range of 50 to 200 nM.

In the case of `COc1ccc(-c2ccc(C(C)(O)c3ccncc3)nc2)cc1` (single isomer, unassigned) [Example 3, 1-(5-(4-methoxyphenyl)-pyridin-2-yl)-1-(pyridin-4-yl)ethanol], in series [1] (setting [7]), the IC50 was 50 to 200 nM.

Consider `CC(O)(c1ccncc1)c1cnc(-c2ccc(F)cc2)s1` (single isomer, unassigned) [Example 8, 1-(2-(4-fluorophenyl)thiazol-5-yl)-1-(pyridin-4-yl)ethanol], for which the IC50 in series [1] (setting [7]) lay within 50 to 200 nM.

Take `CC(O)(c1ccncc1)c1cnc(-c2ccc(F)cc2)s1` (single isomer, unassigned) [Example 9, 1-(2-(4-fluorophenyl)thiazol-5-yl)-1-(pyridin-4-yl)ethanol]: the IC50 in series [1] (setting [6]) is less than 50 nM.

As for `CC(O)(c1ccncc1)c1nc(-c2ccc(F)cc2)no1` (single isomer, unassigned; (+)) [Example 36, (+)-1-(3-(4-fluoro-phenyl)-1,2,4-oxadiazol-5-yl)-1-(pyridin-4-yl)ethanol], in series [3] (setting [8]), the “reduction of prostate weight” value is reported as “about 50%”.

As to `Cn1cc(-c2ccc(C(C)(O)c3ccncc3)s2)ccc1=O` (single isomer, unassigned; (-)) [Example 17, (−)-5-(5-(1-hydroxy-1-(pyridin-4-yl)ethyl)thiophen-2-yl)-1-methylpyridin-2(1H)-one], the “reduction of prostate weight” value in series [3] (setting [8]) was “about 50%”. Besides, the “decrease of serum testosterone levels” value in the series on serum testosterone level (setting [9]) was 30-60%.

`CCC(O)(c1ccncc1)c1cnc(-c2ccc(F)cc2)s1` (centres unmarked) [Example 4, 1-(2-(4-fluorophenyl)-thiazol-5-yl)-1-(pyridin-4-yl)propan-1-ol]: the IC50 in series [1] (setting [7]) is less than 50 nM.

In the case of `CC(O)(c1ccncc1)c1ncc(-c2ccc(F)cc2)s1` (centres unmarked) [Example 14, 1-(5-(4-Fluorophenyl)thiazol-2-yl)-1-(pyridin-4-yl)ethanol], the “decrease of serum testosterone levels” value in the series on serum testosterone level (setting [9]) is 60-80%.

For the compound `CC(O)(c1ccncc1)c1nc(-c2ccc(F)cc2)no1` (centres unmarked) [Example 34, 1-(3-(4-Fluorophenyl)-1,2,4-oxadiazol-5-yl)-1-(pyridin-4-yl)ethanol], the “reduction of prostate weight” value in series [3] (setting [8]) is given as “about 50%”.
